Data published in patent US8492109B2 (priority 2009, dated 2013).

Key:
[1] = system: neuronal cell lines M17, Neuro2a and non-neuronal cell lines HEK293, HIT-T15; type: cell-based
HIT-T15 cells [2] = type: cell-based, human
M17 cells [3] = type: cell-based
[4] = system: primary rat granule cerebellar neurons (RGCN)
HIT-T15 cells [5] = type: cell-based, human; remark: listed apart in the source
M17 cells [6] = system: M17 cells

For `CO/C1=C\C(C)=C\[C@@H](C)[C@@H](O)[C@@H](C)C/C(C)=C/C=C/[C@H](OC)[C@@H]([C@@H](C)[C@@H](O)[C@H](C)[C@@]2(O)C[C@@H](O)[C@H](C)[C@@H](C(C)C)O2)OC1=O` [Bafilomycin, Bafilomycin A1], the “inhibition of BoNT intoxication” value [1] was “clearly inhibited”, the “sensitivity of functional transduction of BoNT Lc to bafilomycin” value [1] was “fully sensitive” and the “inhibition of functional internalization of recombinant BoNT/A Lc” value (HIT-T15 cells [2]) was “inhibited functional internalization”. The “effect on efficiency of plasmid DNA transfection mediated by FuGene (fluorescent protein expression)” value (M17 cells [3]) was “no inhibitory effect”, the “SNAP25 cleavage in bafilomycin-treated cells” value [4] was “a small amount of SNAP25 cleavage was observed” and the “cytotoxicity (visual)” value [4] was “Some cytoxicity”. For the same molecule, the “inhibition of BoNT/A intoxication (SNAP25 cleavage)” value [4] was “completely inhibit”, the “effect on efficiency of plasmid DNA transfection mediated by FuGene (fluorescent protein expression)” value (HIT-T15 cells [5]) was “no inhibitory effect” and the “inhibition of SNAP25 cleavage by BoNT/A holotoxin” value (M17 cells [6]) was “inhibited SNAP25 cleavage”. For the same molecule, the bafilomycin cytotoxicity (HEK293 cells) was “particularly susceptible to bafilomycin toxicity”.
